From patent US20240245793A1, “PSD-95 INHIBITORS AND USES THEREOF” (priority 2021, published 2024)
Where two headings read alike, the source gives them in different places. Starred links: 1 amine or outer side, 2 acyl side, 3 side chain; linkers in the order of their positions; H or OH if unused. Positions of bridges follow the written chain, without caps; N, C: chain ends. Residues, ends and D or L forms follow the SMILES beside them. Chains are numbered I, II in the order given. CO(CH2CH2O)5CH2CH2CO = O=C(CCOCCOCCOCCOCCOCCC(=O)[*:2])[*:1]

Assays:
PDZ1-2 of PSD-95 = PDZ1-2 of PSD-95 (Homo sapiens, UniProt P78352); assay: Fluorescence polarization (FP) competition assay, affinity to PDZ1-2 of PSD-95; type: binding; details: OPEG4 dimers without CPP; mean ± SEM, n ≥ 3 (Table 4, FIG. 1)
PDZ1-2 of PSD-95, sequence (P78352 61-249 limits assumed): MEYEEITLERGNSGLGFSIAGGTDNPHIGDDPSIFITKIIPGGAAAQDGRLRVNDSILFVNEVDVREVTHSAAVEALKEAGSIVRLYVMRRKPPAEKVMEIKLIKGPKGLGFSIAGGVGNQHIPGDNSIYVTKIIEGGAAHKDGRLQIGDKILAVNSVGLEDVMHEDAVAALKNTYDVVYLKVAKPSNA
Method: First, a saturation binding curve was obtained to determine KD values for the interaction between a fluorescent dimeric probe and PDZ1-2 of PSD-95. Increasing concentrations of PDZ1-2 (0.015-30 nM) were added to a constant concentration of the probe (0.5 nM). The fluorescence polarization (FP) of the sample was measured at excitation/emission wavelength of 635/670 nm and the generated FP values were fitted to a one site binding model using the software GraphPad Prism. […] The FP values were fitted to a one site competition (variable slope) model in GraphPad prism. The resulting IC50 values were converted to Ki values as described previously by Nikolovska-Coleska et al., Anal. Biochem., 2004, 332, 261).

plasmin = biological target: T1, plasmin (Homo sapiens, UniProt P00747); assay: In vitro plasmin stability assay; type: in vitro ADME; details: isolated enzyme plasmin
T1 construct: Tissue plasminogen factor (tPA), which generates plasmin from plasminogen
T1 sequence (P00747 581-810 limits assumed, species assumed): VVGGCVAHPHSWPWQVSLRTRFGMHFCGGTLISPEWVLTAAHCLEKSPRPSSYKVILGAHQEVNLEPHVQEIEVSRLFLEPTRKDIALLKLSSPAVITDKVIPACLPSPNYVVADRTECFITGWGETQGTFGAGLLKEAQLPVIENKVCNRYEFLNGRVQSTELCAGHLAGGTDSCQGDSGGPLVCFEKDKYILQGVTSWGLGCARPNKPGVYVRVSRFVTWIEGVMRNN
T1 sequence (P00747 97-580 partner limits assumed, species assumed): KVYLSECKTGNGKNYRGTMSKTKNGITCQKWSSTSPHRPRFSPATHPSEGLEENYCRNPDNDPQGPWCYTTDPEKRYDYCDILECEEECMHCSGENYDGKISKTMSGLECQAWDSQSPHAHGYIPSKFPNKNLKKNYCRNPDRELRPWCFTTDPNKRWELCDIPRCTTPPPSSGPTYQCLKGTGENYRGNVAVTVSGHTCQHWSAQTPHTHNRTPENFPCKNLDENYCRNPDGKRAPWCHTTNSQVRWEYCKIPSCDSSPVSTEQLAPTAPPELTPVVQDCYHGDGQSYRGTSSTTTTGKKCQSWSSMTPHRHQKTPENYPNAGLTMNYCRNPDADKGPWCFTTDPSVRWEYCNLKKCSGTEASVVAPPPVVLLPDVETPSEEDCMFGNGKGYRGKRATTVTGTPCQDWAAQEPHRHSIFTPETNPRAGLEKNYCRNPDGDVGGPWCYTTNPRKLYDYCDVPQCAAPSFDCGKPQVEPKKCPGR
Method: At selected time points during the incubation, the ligands were extracted from 80 μL of assay matrix by treatment with 80 μL of 50% acetonitrile (ACN). The samples were filtered and analysed by UPLC to determine the amount of ligand remaining. LC-MS analysis was performed to confirm ligand integrity and identify cleavage sites.

CC(C)[C@H](NC(=O)[C@@H](NC(=O)[C@@H](NC(=O)[C@H](CCC(=O)O)NC(=O)[C@H](CCCCN)NC(=O)CCOCCOCCOCCOCCOCCC(=O)N[C@@H](CCCCN)C(=O)N[C@@H](CCC(=O)O)C(=O)N[C@H](C(=O)N[C@H](C(=O)N[C@H](C(=O)O)C(C)C)C(C)C)[C@@H](C)O)[C@@H](C)O)C(C)C)C(=O)O [Compound 4, OPEG4-(KETVV)2] (I: KETVV-OH / II: KETVV-OH; linker I:N-II:N via CO(CH2CH2O)5CH2CH2CO; C-terminus assumed)
Ki (PDZ1-2 of PSD-95): 15.8 ± 1.2 nM

CC(C)[C@H](NC(=O)[C@@H](NC(=O)[C@@H](NC(=O)[C@H](CCC(=O)O)NC(=O)[C@H](CCCCN)NC(=O)CCOCCOCCOCCOCCOCCC(=O)N[C@@H](CCCCN)C(=O)N[C@@H](CCC(=O)O)C(=O)N[C@H](C(=O)N[C@H](C(=O)N[C@H](C(=O)O)C(C)C)[C@@H](C)O)[C@@H](C)O)[C@@H](C)O)[C@@H](C)O)C(=O)O [Compound 3, OPEG4-(KETTV)2]
Ki (PDZ1-2 of PSD-95): 14.4 ± 0.4 nM

CC[C@@H](C)[C@@H](NC(=O)[C@@H](CCCCN)NC(=O)[C@H](NC(=O)[C@@H](CCC(N)=O)NC(=O)[C@@H](CCCNC(=N)N)NC(C)=O)[C@H](C)CC)C(=O)N[C@H](Cc1c[nH]c2ccccc12)C(=O)N[C@H](Cc1ccccc1)C(=O)N[C@H](CCC(N)=O)C(=O)N[C@H](CC(N)=O)C(=O)N[C@H](CCCNC(=N)N)C(=O)N[C@H](CCCNC(=N)N)C(=O)N[C@H](CCSC)C(=O)N[C@H](CCCCN)C(=O)N[C@H](Cc1c[nH]c2ccccc12)C(=O)N[C@H](CCCCN)C(=O)N[C@H](CCCCN)C(=O)N(CCOCCOCCC(=O)N[C@H](C(=O)N[C@@H](CCC(=O)O)C(=O)N[C@H](C(=O)N[C@@H](CC(=O)O)C(=O)N[C@H](C(=O)O)C(C)C)[C@@H](C)O)[C@@H](C)CC)CCOCCOCCC(=O)N[C@H](C(=O)N[C@@H](CCC(=O)O)C(=O)N[C@H](C(=O)N[C@@H](CC(=O)O)C(=O)N[C@H](C(=O)O)C(C)C)[C@@H](C)O)[C@@H](C)CC [Compound 48]
half-life (plasmin; read-out: T1/2): 24 h

CC[C@H](C)[C@H](NC(=O)CCOCCOCCN(CCOCCOCCC(=O)N[C@H](C(=O)N[C@@H](CCC(=O)O)C(=O)N[C@H](C(=O)N[C@@H](CC(=O)O)C(=O)N[C@H](C(=O)O)C(C)C)[C@@H](C)O)[C@@H](C)CC)C(=O)[C@H](CO)NC(=O)[C@H](CCC(=O)O)NC(=O)[C@H](CCCNC(=N)N)NC(=O)[C@H](CCCNC(=N)N)NC(=O)[C@H](CCCNC(=N)N)NC(=O)[C@H](CCCCN)NC(=O)[C@H](CCCCN)NC(=O)[C@H](CCCNC(=N)N)NC(=O)[C@H](CO)NC(=O)[C@H](CCC(=O)O)NC(=O)[C@H](CCCNC(=N)N)NC(=O)[C@H](CCCNC(=N)N)NC(=O)[C@H](CCCNC(=N)N)NC(=O)[C@H](CCCCN)NC(=O)[C@H](CCCCN)NC(=O)[C@H](CCCNC(=N)N)NC(C)=O)C(=O)N[C@@H](CCC(=O)O)C(=O)N[C@H](C(=O)N[C@@H](CC(=O)O)C(=O)N[C@H](C(=O)O)C(C)C)[C@@H](C)O [Compound 50]
half-life at 100 μM (plasmin): 2.82 ± 0.333 h

CC[C@H](C)[C@H](NC(=O)CCOCCOCCN(CCOCCOCCC(=O)N[C@H](C(=O)N[C@@H](CCC(=O)O)C(=O)N[C@H](C(=O)N[C@@H](CC(=O)O)C(=O)N[C@H](C(=O)O)C(C)C)[C@@H](C)O)[C@@H](C)CC)C(=O)[C@H](CCCCN)NC(=O)[C@H](CCCCN)NC(=O)[C@H](Cc1c[nH]c2ccccc12)NC(=O)[C@H](CCCCN)NC(=O)[C@H](CCSC)NC(=O)[C@H](CCCNC(=N)N)NC(=O)[C@H](CCCNC(=N)N)NC(=O)[C@H](CC(N)=O)NC(=O)[C@H](CCC(N)=O)NC(=O)[C@H](Cc1ccccc1)NC(=O)[C@H](Cc1c[nH]c2ccccc12)NC(=O)[C@@H](NC(=O)[C@H](CCCCN)NC(=O)[C@@H](NC(=O)[C@H](CCC(N)=O)NC(=O)[C@H](CCCNC(=N)N)NC(C)=O)[C@@H](C)CC)[C@@H](C)CC)C(=O)N[C@@H](CCC(=O)O)C(=O)N[C@H](C(=O)N[C@@H](CC(=O)O)C(=O)N[C@H](C(=O)O)C(C)C)[C@@H](C)O [Compound 46]
half-life (plasmin): 1.57 ± 0.133 h

CC[C@H](C)[C@H](NC(=O)CCOCCOCCN(CCOCCOCCC(=O)N[C@H](C(=O)N[C@@H](CCC(=O)O)C(=O)N[C@H](C(=O)N[C@@H](CC(=O)O)C(=O)N[C@H](C(=O)O)C(C)C)[C@@H](C)O)[C@@H](C)CC)C(=O)[C@H](Cc1ccccc1)NC(=O)[C@H](CCC(N)=O)NC(=O)CNC(=O)[C@H](CCCNC(=N)N)NC(=O)[C@H](CC(C)C)NC(=O)[C@H](CC(C)C)NC(=O)[C@H](CCCNC(=N)N)NC(=O)[C@H](CC(C)C)NC(=O)[C@H](Cc1ccc(O)cc1)NC(=O)[C@@H](NC(=O)[C@H](CC(C)C)NC(=O)[C@@H]1CCCN1C(C)=O)[C@@H](C)CC)C(=O)N[C@@H](CCC(=O)O)C(=O)N[C@H](C(=O)N[C@@H](CC(=O)O)C(=O)N[C@H](C(=O)O)C(C)C)[C@@H](C)O [Compound 56]
half-life at 100 μM (plasmin): 15.2 h

CC(C)C[C@H](NC(=O)[C@@H](NC(=O)[C@H](CCC(=O)O)NC(=O)[C@H](CCCCN)NC(=O)CCOCCOCCOCCOCCOCCC(=O)N[C@@H](CCCCN)C(=O)N[C@@H](CCC(=O)O)C(=O)N[C@H](C(=O)N[C@@H](CC(C)C)C(=O)N[C@H](C(=O)O)C(C)C)[C@@H](C)O)[C@@H](C)O)C(=O)N[C@H](C(=O)O)C(C)C [Compound 2, OPEG4-(KETLV)2]
Ki (PDZ1-2 of PSD-95): 11.1 ± 0.3 nM

CC[C@H](C)[C@H](NC(=O)CCOCCOCCN(CCOCCOCCC(=O)N[C@H](C(=O)N[C@@H](CCC(=O)O)C(=O)N[C@H](C(=O)N[C@@H](CC(=O)O)C(=O)N[C@H](C(=O)O)C(C)C)[C@@H](C)O)[C@@H](C)CC)C(=O)[C@H](C)NC(=O)[C@H](CC(C)C)NC(=O)[C@H](CCCCN)NC(=O)[C@H](CC(C)C)NC(=O)[C@H](C)NC(=O)[C@H](C)NC(=O)[C@H](CCCCN)NC(=O)[C@H](CC(C)C)NC(=O)[C@H](C)NC(=O)[C@H](CCCCN)NC(=O)[C@H](CC(C)C)NC(=O)[C@H](C)NC(=O)[C@H](CC(C)C)NC(=O)[C@H](CCCCN)NC(=O)[C@H](CC(C)C)NC(=O)[C@H](C)NC(=O)[C@H](CC(C)C)NC(=O)[C@H](CCCCN)NC(C)=O)C(=O)N[C@@H](CCC(=O)O)C(=O)N[C@H](C(=O)N[C@@H](CC(=O)O)C(=O)N[C@H](C(=O)O)C(C)C)[C@@H](C)O [Compound 54]
half-life at 100 μM (plasmin): 0.217 ± 0.0667 h

CC[C@H](C)[C@H](NC(=O)CCOCCOCCN(CCOCCOCCC(=O)N[C@H](C(=O)N[C@@H](CCC(=O)O)C(=O)N[C@H](C(=O)N[C@@H](CC(=O)O)C(=O)N[C@H](C(=O)O)C(C)C)[C@@H](C)O)[C@@H](C)CC)C(=O)[C@@H](CCCNC(=N)N)NC(=O)[C@@H](CCCNC(=N)N)NC(=O)[C@@H](CCCNC(=N)N)NC(=O)[C@@H](CCC(N)=O)NC(=O)[C@@H](CCCNC(=N)N)NC(=O)[C@@H](CCCNC(=N)N)NC(=O)[C@@H](CCCCN)NC(=O)[C@@H](CCCCN)NC(=O)[C@@H](CCCNC(=N)N)NC(=O)CNC(=O)[C@@H](Cc1ccc(O)cc1)NC(C)=O)C(=O)N[C@@H](CCC(=O)O)C(=O)N[C@H](C(=O)N[C@@H](CC(=O)O)C(=O)N[C@H](C(=O)O)C(C)C)[C@@H](C)O [Compound 38]
half-life (plasmin; read-out: T1/2): 24 h

CC[C@H](C)[C@H](NC(=O)CCOCCOCCN(CCOCCOCCC(=O)N[C@H](C(=O)N[C@@H](CCC(=O)O)C(=O)N[C@H](C(=O)N[C@@H](CC(=O)O)C(=O)N[C@H](C(=O)O)C(C)C)[C@@H](C)O)[C@@H](C)CC)C(=O)[C@H](CCCCN)NC(=O)[C@H](CO)NC(=O)[C@H](Cc1c[nH]cn1)NC(=O)[C@H](C)NC(=O)[C@H](Cc1c[nH]cn1)NC(=O)[C@H](C)NC(=O)[C@H](CCC(N)=O)NC(=O)[C@H](CCCCN)NC(=O)[C@H](CCCNC(=N)N)NC(=O)[C@@H](NC(=O)[C@H](CCCNC(=N)N)NC(=O)[C@H](CCCNC(=N)N)NC(=O)[C@H](CCCNC(=N)N)NC(=O)[C@H](CC(C)C)NC(=O)[C@@H](NC(=O)[C@@H](NC(=O)[C@H](CC(C)C)NC(=O)[C@H](CC(C)C)NC(C)=O)[C@@H](C)CC)[C@@H](C)CC)[C@@H](C)CC)C(=O)N[C@@H](CCC(=O)O)C(=O)N[C@H](C(=O)N[C@@H](CC(=O)O)C(=O)N[C@H](C(=O)O)C(C)C)[C@@H](C)O [Compound 52]
half-life at 100 μM (plasmin): 0.817 ± 0.15 h

CC[C@H](C)[C@H](NC(=O)CCOCCOCCN(CCOCCOCCC(=O)N[C@H](C(=O)N[C@@H](CCC(=O)O)C(=O)N[C@H](C(=O)N[C@@H](CC(=O)O)C(=O)N[C@H](C(=O)O)C(C)C)[C@@H](C)O)[C@@H](C)CC)C(=O)[C@@H]1CC(=O)NC[C@H](NC(C)=O)C(=O)N[C@@H](CCCCN)C(=O)N[C@@H](C)C(=O)N2CCC[C@H]2C(=O)N[C@@H](CCC(=O)O)C(=O)N[C@@H]([C@@H](C)O)C(=O)N[C@@H](C)C(=O)N[C@@H](CC(C)C)C(=O)N1)C(=O)N[C@@H](CCC(=O)O)C(=O)N[C@H](C(=O)N[C@@H](CC(=O)O)C(=O)N[C@H](C(=O)O)C(C)C)[C@@H](C)O [Compound 60]
half-life at 100 μM (plasmin; read-out: T1/2): 24 h

CC(=O)N[C@@H](CCCNC(=N)N)C(=O)N[C@@H](CCCNC(=N)N)C(=O)N[C@@H](CCCNC(=N)N)C(=O)N[C@@H](CCCNC(=N)N)C(=O)N[C@@H](CCCNC(=N)N)C(=O)N[C@@H](CCCNC(=N)N)C(=O)N[C@@H](CCCNC(=N)N)C(=O)N[C@@H](CCCNC(=N)N)C(=O)N[C@@H](CCCNC(=N)N)C(=O)N(CCOCCOCCC(=O)N[C@@H](CCCCN)C(=O)N[C@@H](CCC(=O)O)C(=O)N[C@H](C(=O)N[C@H](C(=O)N[C@H](C(=O)O)C(C)C)[C@@H](C)O)[C@@H](C)O)CCOCCOCCC(=O)N[C@@H](CCCCN)C(=O)N[C@@H](CCC(=O)O)C(=O)N[C@H](C(=O)N[C@H](C(=O)N[C@H](C(=O)O)C(C)C)[C@@H](C)O)[C@@H](C)O [Compound 25]
half-life at 100 μM (plasmin): 19.2 ± 3.38 h
